Active and inactive are the calls of the source. No cut-off for these calls is given here.
Legend:
Assay type in all cases: functional
[1] = Inhibition of Cu2+/GSH-induced DNA oxidation at 0.2 mM by TBARS assay
[2] = Antioxidant activity assessed as hydroxyl radical-induced DNA oxidation at 0.2 mM after 30 min by TBARS assay (reference value: 100%)
[3] = Inhibition of AAPH-induced DNA oxidation by TBARS assay

| Structure (SMILES) | inhibition [1] | Activity [2] | inhibition [3] |
| --- | --- | --- | --- |
| C=C(C)C(C)c1cc(/C=C/C(=O)c2ccc(O)cc2)cc(OC)c1O (centres undefined) | Active | 91.3% | Active |
| C=C(C)C(C)c1cc(/C=C/C(=O)c2ccc(O)cc2O)cc(OC)c1O (centres undefined) | Active | 106% | Active |
| C=C(C)C(C)c1cc(/C=C/C(=O)c2c(O)cc(O)cc2O)cc(OC)c1O (centres undefined) | Active | 98.2% | Active |
